{
  "source": "patent US20200055817A1",
  "about": "(AbbVie Deutschland GmbH & Co. KG, priority 2016, published 2020)",
  "assay_type_in_all_cases": "cell-based",
  "key": {"[1]": {"target": "T1, human EDG8 (S1PR5) receptor (Homo sapiens, UniProt Q9H228)", "T1 construct": "carries the transgenes human EDG8 (S1PR5) receptor (Acession number NP_110387.1); expressed in transfected cells; host or cells: CHO-A21-EDG8#12 (CHO clone co-expressing mitochondrial aequorin and chimaeric Gaqi5)", "T1 sequence (Q9H228 whole entry)": "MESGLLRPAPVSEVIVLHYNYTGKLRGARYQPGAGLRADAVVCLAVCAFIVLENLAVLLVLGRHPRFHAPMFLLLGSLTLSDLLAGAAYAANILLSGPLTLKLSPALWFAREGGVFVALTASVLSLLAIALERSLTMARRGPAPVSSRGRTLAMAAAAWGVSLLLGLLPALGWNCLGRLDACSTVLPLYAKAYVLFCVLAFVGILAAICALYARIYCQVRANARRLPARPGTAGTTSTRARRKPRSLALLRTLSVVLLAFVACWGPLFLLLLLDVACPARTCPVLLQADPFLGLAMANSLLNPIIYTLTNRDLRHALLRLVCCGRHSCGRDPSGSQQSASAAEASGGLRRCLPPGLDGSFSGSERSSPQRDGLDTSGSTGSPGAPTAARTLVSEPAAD", "experiment": "Aequorin assay, agonist potency, CHO-A21-EDG8#12 cells", "conditions": "agonist mode, aequorin luminescence; read-out: S1P5 EC50 range #", "description": "(§1) Agonistic activity was measured as described below.\n(§2) Cell clone CHO-A21-Edg1#17 carries the transgenes human EDG1 (S1PR1) receptor (Accession number NP_001391.2), mitochondrially targeted Aequorin (active part corresponds to accession number 1SL8_A) and chimaeric Gaqi5=Gaq modified with the 5 C-terminal amino-acids replaced with those of the Gai protein (DCGLF). CHO-A2-S1P3 Mix is a cell pool ectopically expressing human EDG3 (S1PR3) receptor (Accession number NP_005217.2) mitochondrially targeted Aequorin (active part has a sequence similar to accession number AY601106.1) and GNA16 (Accession number NP_002059.3). Cell clone CHO-A21-EDG8#12 carries the transgenes human EDG8 (S1PR5) receptor (Acession number NP_110387.1), mitochondrially expressed Aequorin (active part corresponds to accession number 1SL8_A) and chimaeric Gaqi5 (Gaq modified to present the 5 last amino-acids of the Gai protein “DCGLF”; see above). Cells are grown to mid-log phase in culture medium (HAM's F12, 10% FBS, 100 IU/mL penicillin, 100 μg/mL streptomycin, 250 μg/mL Zeocin, 400 μg/mL G418). 18 hours prior to frozen cells preparation, the medium is changed to remove the antibiotics.\n(§3) 18 hours prior to the test, vials of frozen cells are quickly thawed in a 37° C. water bath, cells are recovered by centrifugation and resuspended in assay buffer (DMEM/HAM's F12 with HEPES, without phenol red+0.1% fatty acid-free BSA). Cells are gently agitated in suspension overnight at RT in presence of 5 μM of Coelenterazine h (Molecular Probes). On the day of the test, cells are diluted to their final working concentrations in assay buffer and agitated in suspension for 1 h at RT. Cells are then placed in the luminescence reader (Hamamatsu Functional Drug Screening System 6000, FDSS6000). During cells incubation, compounds are prepared in 100% DMSO, and subsequently diluted in assay buffer. Compounds are then dispensed in the assay plate (black, clear-bottom, 384-well plate). After binding of agonists to the human S1P receptor the intracellular calcium concentration increases and binding of calcium to the Aequorin/Coelenterazine complex leads to an oxidation reaction of coelenterazine, which results in the production of Aequorin, coelenteramide, CO2 and light (Dmax 469 nm). The luminescent response is dependent on the agonist concentration. For agonist testing, 30 μL of cell suspension are injected on 30 μL of test compound or reference agonist in the assay plate. The resulting emission of light is recorded for 90 seconds using the FDSS6000. Dose response curves with the reference compounds are performed before testing the compounds. S1P is the reference agonist and JTE-013 the reference antagonist for S1P2.\n(§4) Luminescence data are integrated over the reading interval for agonist and antagonist modes. To standardize the emission of recorded light (determination of the “100% signal”) across plates and across different experiments, some of the wells contain 100 μM digitonin or a saturating concentration of ATP (20 μM). Plates also contain the reference agonist at a concentration equivalent to the EC80 obtained during the test validation and the EC100. Dose-response data from test compounds were analyzed with XLfit (IDBS) software using nonlinear regression applied to a sigmoidal dose-response model and the following equation: […]"}, "[2]": {"target": "T2, human EDG1 (S1PR1) receptor (Homo sapiens, UniProt P21453)", "T2 construct": "expressed in transfected cells; host or cells: CHO-A21-Edg1#17 (CHO clone co-expressing mitochondrial aequorin and chimaeric Gaqi5)", "T2 sequence (P21453 whole entry)": "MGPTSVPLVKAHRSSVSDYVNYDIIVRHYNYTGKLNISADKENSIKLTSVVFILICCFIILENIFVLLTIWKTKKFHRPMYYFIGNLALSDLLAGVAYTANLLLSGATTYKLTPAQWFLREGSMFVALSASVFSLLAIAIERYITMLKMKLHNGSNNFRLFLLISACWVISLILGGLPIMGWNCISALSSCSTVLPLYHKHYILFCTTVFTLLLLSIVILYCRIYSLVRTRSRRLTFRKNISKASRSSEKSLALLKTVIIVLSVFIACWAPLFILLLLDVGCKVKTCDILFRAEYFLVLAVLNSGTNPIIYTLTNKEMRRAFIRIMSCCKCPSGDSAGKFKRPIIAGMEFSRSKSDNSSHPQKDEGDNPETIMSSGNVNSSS", "experiment": "Aequorin assay, agonist potency, CHO-A21-Edg1#17 cells", "conditions": "agonist mode, aequorin luminescence; read-out: S1P1 EC50", "description": "as §1, §2, §3, §4"}, "S1P4": {"target": "T3, S1P4 (Homo sapiens, UniProt O95977)", "T3 sequence (O95977 1-384)": "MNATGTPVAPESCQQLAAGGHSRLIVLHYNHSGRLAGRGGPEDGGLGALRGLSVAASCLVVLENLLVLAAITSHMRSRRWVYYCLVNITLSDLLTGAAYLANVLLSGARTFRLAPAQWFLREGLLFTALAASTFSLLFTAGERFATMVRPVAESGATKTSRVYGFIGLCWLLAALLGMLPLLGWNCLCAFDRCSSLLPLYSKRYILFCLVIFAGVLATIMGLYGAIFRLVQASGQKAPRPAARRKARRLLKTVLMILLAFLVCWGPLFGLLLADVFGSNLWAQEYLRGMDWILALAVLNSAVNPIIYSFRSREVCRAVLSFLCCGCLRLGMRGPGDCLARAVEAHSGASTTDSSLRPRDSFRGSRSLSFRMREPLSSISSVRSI", "experiment": "Aequorin assay, agonist potency, S1P4", "conditions": "agonist mode, aequorin luminescence", "description": "as §1, §3, §4"}},
  "data": [
    {"compound": "CCOc1ccc(COc2ccc3c(c2)CC2(C3)CN(CC3(C(=O)O)CC3)C2)c(Cl)c1", "note": "[Example 32, 1-((5′-((2-chloro-4-ethoxybenzyl)oxy)-1′,3′-dihydrospiro[azetidine-3,2′-inden]-1-yl)methyl)cyclopropanecarboxylic acid]", "values": [
      {"measurement": "EC50", "setting": "[1]", "value": "1 to 10", "unit": "µM"},
      {"measurement": "EC50", "setting": "[2]", "value": "> 1", "unit": "µM"},
      {"measurement": "EC50", "setting": "S1P4", "value": "< 1", "unit": "µM"}
    ]},
    {"compound": "O=C(O)C1(CN2CC3(Cc4ccc(OCc5ccc(Cl)cc5)cc4C3)C2)CC1", "note": "[Example 33, 1-((5′-((4-chlorobenzyl)oxy)-1′,3′-dihydrospiro[azetidine-3,2′-inden]-1-yl)methyl)cyclopropanecarboxylic acid]", "values": [
      {"measurement": "EC50", "setting": "[1]", "value": "1 to 10", "unit": "µM"},
      {"measurement": "EC50", "setting": "[2]", "value": "> 1", "unit": "µM"},
      {"measurement": "EC50", "setting": "S1P4", "value": "< 1", "unit": "µM"}
    ]},
    {"compound": "O=C(O)C1(CN2CC3(Cc4ccc(OCc5c(F)cccc5Cl)cc4C3)C2)CC1", "note": "[Example 34, 1-((5′-((2-chloro-6-fluorobenzyl)oxy)-1′,3′-dihydrospiro[azetidine-3,2′-inden]-1-yl)methyl)cyclopropanecarboxylic acid compound with 2,2,2-trifluoroacetic acid (1:1)]", "values": [
      {"measurement": "EC50", "setting": "[1]", "value": "1 to 10", "unit": "µM"},
      {"measurement": "EC50", "setting": "[2]", "value": "> 1", "unit": "µM"},
      {"measurement": "EC50", "setting": "S1P4", "value": "< 1", "unit": "µM"}
    ]},
    {"compound": "CCOc1ccc(COc2ccc3c(c2)CC2(C3)CN(CC3(C(=O)O)CC3)C2)cc1", "note": "[Example 35, 1-((5′-((4-ethoxybenzyl)oxy)-1′,3′-dihydrospiro[azetidine-3,2′-inden]-1-yl)methyl)cyclopropanecarboxylic acid]", "values": [
      {"measurement": "EC50", "setting": "[1]", "value": "1 to 10", "unit": "µM"},
      {"measurement": "EC50", "setting": "[2]", "value": "> 1", "unit": "µM"},
      {"measurement": "EC50", "setting": "S1P4", "value": "< 1", "unit": "µM"}
    ]},
    {"compound": "O=C(O)C1(CN2CC3(Cc4ccc(OCc5cc(Cl)ccc5Cl)cc4C3)C2)CC1", "note": "[Example 36, 1-((5′-((2,5-dichlorobenzyl)oxy)-1′,3′-dihydrospiro[azetidine-3,2′-inden]-1-yl)methyl)cyclopropanecarboxylic acid compound with acetic acid (1:1)]", "values": [
      {"measurement": "EC50", "setting": "[1]", "value": "1 to 10", "unit": "µM"},
      {"measurement": "EC50", "setting": "[2]", "value": "> 1", "unit": "µM"},
      {"measurement": "EC50", "setting": "S1P4", "value": "< 1", "unit": "µM"}
    ]},
    {"compound": "O=C(O)C1(CN2CC3(Cc4ccc(OCc5c(F)cccc5F)cc4C3)C2)CC1", "note": "[Example 37, 1-((5′-((2,6-difluorobenzyl)oxy)-1′,3′-dihydrospiro[azetidine-3,2′-inden]-1-yl)methyl)cyclopropanecarboxylic acid compound with 2,2,2-trifluoroacetic acid (1:1)]", "values": [
      {"measurement": "EC50", "setting": "[1]", "value": "1 to 10", "unit": "µM"},
      {"measurement": "EC50", "setting": "[2]", "value": "> 1", "unit": "µM"},
      {"measurement": "EC50", "setting": "S1P4", "value": "< 1", "unit": "µM"}
    ]},
    {"compound": "O=C(O)C1(CN2CC3(Cc4ccc(OCc5ccc(Cl)cc5Cl)cc4C3)C2)CC1", "note": "[Example 38, 1-((5′-((2,4-dichlorobenzyl)oxy)-1′,3′-dihydrospiro[azetidine-3,2′-inden]-1-yl)methyl)cyclopropanecarboxylic acid]", "values": [
      {"measurement": "EC50", "setting": "[1]", "value": "1 to 10", "unit": "µM"},
      {"measurement": "EC50", "setting": "[2]", "value": "> 1", "unit": "µM"},
      {"measurement": "EC50", "setting": "S1P4", "value": "< 1", "unit": "µM"}
    ]},
    {"compound": "COc1ccc(COc2ccc3c(c2)CC2(C3)CN(CC3(C(=O)O)CC3)C2)c(Cl)c1", "note": "[Example 40, 1-((5′-((2-chloro-4-methoxybenzyl)oxy)-1′,3′-dihydrospiro[azetidine-3,2′-inden]-1-yl)methyl)cyclopropanecarboxylic acid]", "values": [
      {"measurement": "EC50", "setting": "[1]", "value": "1 to 10", "unit": "µM"},
      {"measurement": "EC50", "setting": "[2]", "value": "> 1", "unit": "µM"},
      {"measurement": "EC50", "setting": "S1P4", "value": "< 1", "unit": "µM"}
    ]},
    {"compound": "O=C(O)C1(CN2CC3(Cc4ccc(OCc5ccccc5C(F)(F)F)cc4C3)C2)CC1", "note": "[Example 41, 1-((5′-((2-(trifluoromethyl)benzyl)oxy)-1′,3′-dihydrospiro[azetidine-3,2′-inden]-1-yl)methyl)cyclopropanecarboxylic acid compound with 2,2,2-trifluoroacetic acid (1:1)]", "values": [
      {"measurement": "EC50", "setting": "[1]", "value": "1 to 10", "unit": "µM"},
      {"measurement": "EC50", "setting": "[2]", "value": "> 1", "unit": "µM"},
      {"measurement": "EC50", "setting": "S1P4", "value": "< 1", "unit": "µM"}
    ]},
    {"compound": "Cc1cccc(F)c1COc1ccc2c(c1)CC1(C2)CN(CC2(C(=O)O)CC2)C1", "note": "[Example 42, 1-((5′-((2-fluoro-6-methylbenzyl)oxy)-1′,3′-dihydrospiro[azetidine-3,2′-inden]-1-yl)methyl)cyclopropanecarboxylic acid compound with 2,2,2-trifluoroacetic acid (1:1)]", "values": [
      {"measurement": "EC50", "setting": "[1]", "value": "0.1 to 1", "unit": "µM"},
      {"measurement": "EC50", "setting": "[2]", "value": "> 1", "unit": "µM"},
      {"measurement": "EC50", "setting": "S1P4", "value": "< 1", "unit": "µM"}
    ]}
  ]
}
